# Laboratory results taken from US20030068615A1, “Polypeptides that bind HIV gp120 and related nucleic acids, antibodies, compositions, and methods of use” (priority 1999, published 2003).
# Where two headings read alike, the source gives them in different places.
# Key:
# [1] = system: HIV-1 virus strains (e.g. YU2); conditions: cited from earlier work; for percentage compared to wild-type CCR5, 89.6 / percentage compared to wild-type CCR5, ADA / percentage compared to wild-type CCR5, DH123 / percentage compared to wild-type CCR5, JF-RL / percentage compared to wild-type CCR5, YU2: CCR5 alanine mutant, work of others; for percentage compared to wild-type CCR5, 89.6: HIV-1 strain 89.6; for percentage compared to wild-type CCR5, ADA: HIV-1 strain ADA; for percentage compared to wild-type CCR5, DH123: HIV-1 strain DH123; for percentage compared to wild-type CCR5, JF-RL: HIV-1 strain JF-RL; for percentage compared to wild-type CCR5, YU2: HIV-1 strain YU2
# HIV-1LAI envelope gp120 = HIV-1LAI envelope gp120 (Human immunodeficiency virus type 1 group M subtype B, UniProt P03377); type: binding
# [2] = Panel A, 21-mers of CD4, empty control 515 and 617
# [3] = Panel E, 9-mers and 12-mers of CD4, empty control 571
# [4] = Panel C, 15-mers and 18-mers of CD4, empty control 556
Substance,"percentage compared to wild-type CCR5, 89.6 [1]","percentage compared to wild-type CCR5, ADA [1]","percentage compared to wild-type CCR5, DH123 [1]","percentage compared to wild-type CCR5, JF-RL [1]","percentage compared to wild-type CCR5, YU2 [1]",also measured
MDYQVSSPIYDINAYTSE: CCR5 (1-18) variant Y14A,6%,47%,0%,25%,12%,
MDYQVSSPIYAINYYTSE: CCR5 (1-18) variant D11A,6%,27%,3%,22%,2%,
"Y3A: human CCR5 chemokine receptor with tyrosine 3 substituted by alanine, studied by others (cited 79% value)",,79%,42%,82%,,"percentage of binding of mutant polypeptide compared to wild-type polypeptide, gp120 (HIV-1LAI envelope gp120; CCR5 alanine mutant peptide, radiolabeled HIV-1LAI gp120): 51.4%; ability to bind HIV-1LAI gp120 envelope protein in comparison to an equivalent wild-type peptide (HIV-1LAI envelope gp120; CCR5 mutant polypeptide): 51.4%; affinity relative to a non-mutated CCR5 chemokine receptor ([1]; mutated CCR5, data extracted from the work of others): 79%"
MDYQVSSPIYDINYATSE: CCR5 (1-18) variant Y15A,1%,3%,0%,3%,30%,
MDYAVSSPIYDINYYTSE: CCR5 (1-18) variant Q4A,67%,132%,105%,111%,85%,
MDYQVSSPIADINYYTSE: CCR5 (1-18) variant Y10A,10%,50%,3%,26%,2%,
MDYQVSSPIYDINYYTSA: CCR5 (1-18) variant E18A,3%,12%,10%,12%,45%,
VLAFQKASSIVYKKEGEQVEF,,,,,,"COUNTS of radiolabeled gp120 retained (HIV-1LAI envelope gp120; [2]): 1793 counts; number of radioactive decays (counts) counted (HIV-1LAI envelope gp120; human CD4 21-mer scan, empty control 2075): 3566 counts"
TVVLATQMTLGFFLPLLT [STRL33 segment 189-206],,,,,,"radioactive counts recorded in twenty minutes (HIV-1LAI envelope gp120; STRL33 18-mer scan, background subtracted, first of two count columns): 2327.5 counts; radioactive counts recorded in twenty minutes (HIV-1LAI envelope gp120; STRL33 18-mer scan, background subtracted, second of two count columns): 2389.5 counts"
IVYKKEGEQ,,,,,,COUNTS of radiolabeled gp120 retained (HIV-1LAI envelope gp120; [3]): 534 counts
KKEGEQVEFSFP,,,,,,COUNTS of radiolabeled gp120 retained (HIV-1LAI envelope gp120; [3]): 598 counts
VYKKEGEQVEFSFPLAFT,,,,,,COUNTS of radiolabeled gp120 retained (HIV-1LAI envelope gp120; [4]): 4307 counts
EKLTGSGEL,,,,,,COUNTS of radiolabeled gp120 retained (HIV-1LAI envelope gp120; [3]): 541 counts
LNPILYAFLGAKFKTSAQ [CXCR4 segment 297-314],,,,,,"radioactive counts recorded in twenty minutes (HIV-1LAI envelope gp120; CXCR4 18-mer scan, background subtracted, empty control 0): 274 counts; radioactive counts recorded in twenty minutes (HIV-1LAI envelope gp120; CXCR4 18-mer scan, empty control 412): 686 counts"
KASSIVYKKEGEQVE,,,,,,COUNTS of radiolabeled gp120 retained (HIV-1LAI envelope gp120; [4]): 563 counts
FQKASSIVYKKEGEQVEFSFP,,,,,,COUNTS of radiolabeled gp120 retained (HIV-1LAI envelope gp120; [2]): 9382 counts
QLLVFGLTANSDTHL,,,,,,"COUNTS of radiolabeled gp120 retained (HIV-1LAI envelope gp120; Panel B, 15-mers and 18-mers of CD4, empty control 575): 865 counts"
